Test results taken from patent publication US8084502B2, “Use of agmatine for protection of retinal ganglion cells” (priority 2007, dated 2011).

Experiments:
RGC-5 = test: LDH assay, TNF-α-induced cell death; assay type: cell-based, rat; conditions: 100 μM of agmatine; for LDH release: 50 ng/mL of TNF-α
Experimental: The RGC-5 cell line, which is an RGC line developed from post-natal Sprague-Dawley rats, was grown in modified DMEM (Gibco) supplemented with 10% of heat inactivated fetal bovine serum (Gibco) and 100 U/mL of penicillin and 100 μg/mL of streptomycin (Gibco). The cells were passaged every 2 to 3 days and incubated at 37° C. in 5% of CO2 and air. At cultivation, the cells had the same morphology. For all experiments, cells were used at 80% of confluence.
After washing twice with PBS, cells were cultured in serum-free DMEM and treated with either 10 or 50 ng/mL of recombinant rat TNF-α (Chemicon) for up to 48 hours. The control cells were not exposed to TNF-α. 100 μM of agmatine was added to the culture medium at the start of injury as indicated.
Cell viability was quantified by measuring the amounts of LDH released from the injured cells after TNF-α administration. LDH release is expressed as a value relative to the value of 100, which is the maximum LDH release that occurs after freezing each culture at −70° C. overnight and then rapidly thawing, thus inducing nearly complete cell damage. All experiments were performed in at least quadruplicate, and repeated at least eight times using cell cultures derived from different platings.

caspase-3 = test: Caspase-3 activity (colorimetric, Ac-DEVD-pNA cleavage) after hypoxia; assay type: cell-based, rat; conditions: hypoxia 24 hours; 100 μM of agmatine or 50 μM of Z-VAD-FMK
Experimental: The RGC-5 cell line, which is a RGC line developed from post-natal Sprague-Dawley rats, was grown in modified Dulbecco's Modified Eagle's Medium (DMEM; Gibco) supplemented with 10% of heat inactivated fetal bovine serum (Gibco) and 100 U/mL of penicillin and 100 μg/mL of streptomycin (Gibco). The cells were passaged every 2 to 3 days, and the cultures incubated at 37° C. in 5% of CO2 and air. […] For all experiments, cells were used at an 80% confluence. Cultures were transferred into a closed hypoxic chamber (Form a Scientific Co.) in which oxygen level (5% of O2, 5% of CO2, 90% of N2) and temperature (37° C.) were controlled. After washing twice with deoxygenated serum-free DMEM, cells were maintained in the hypoxic chamber. Control cells were not exposed to hypoxia. Agmatine or BDNF were added to the culture medium at the start of injury as indicated. Caspase-3 activity was measured using the CaspACE™ colorimetric assay system (Promega, Cat no. G7220) according to the manufacturer's instructions. Briefly, cells were harvested and resuspended in cell lysis buffer (10^8 cells/mL). […] After incubating at 37° C. for 4 hours, absorbance was measured using a microplate reader at 405 nm. Absorbance of each sample was determined by subtraction of the mean absorbance of the blank from that of each sample.

N=C(N)NCCCCN [agmatine]
LDH release (RGC-5; 24 hours): 5.91±0.86% | LDH release (RGC-5; 48 hours): 8.14±2.43% | TNF-α-induced LDH release (RGC-5; all P<0.001): significantly inhibited | hypoxia-induced caspase-3 activity (caspase-3): equally suppressed
